Source: patent US12509460B2 (Skyhawk Therapeutics, Inc., priority 2019, dated 2025)
Like-named read-outs stand apart in the source and are kept apart here.

How the values were obtained:
[1] = Quantitative splicing assay (HTT), qPCR; assay type: cell-based, human; conditions: Homo sapiens, GM04724, 24 h, GM04724 lymphoblasts, read-out: HTT Splicing: E49-50 EC50
Summary of the method: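 Patient lymphoblasts (50,000 cells/well) dosed immediately after plating for 24 h at 2.5 uM to 0.15 nM in 0.1% DMSO. Lysed, cDNA made directly from cells, and inclusion of the intron 49 cryptic exon quantified by TaqMan qPCR.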

[2] = test system: mHTT protein in GM04724 (CAG 70/20) Huntington's disease patient lymphoblast cells; assay: mHTT protein assay, 2B7-MW1 assay via Mesoscale Discovery (MSD); assay type: cell-based, human
Summary of the method: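 Patient lymphoblasts treated 48 h with compound from 10 μM to 0.6 nM. mHTT quantified by MSD 2B7-MW1 immunoassay, whose signal depends on polyQ expansion and HTT size. Viability measured on a replicate plate by CellTiter Glo.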

[3] = test system: SMN FL and SMN Δ7 in spinal muscular atrophy (SMA) patient fibroblasts (GM03813, Coriell); assay: Quantitative splicing assay (SMN), qPCR; assay type: cell-based, human; conditions: Homo sapiens, Fibroblast, 24 h, read-out: SMN2 Splicing FL EC50
Procedure: Spinal muscular atrophy (SMA) patient fibroblasts (GM03813, Coriell) are plated in 96-well plates at 50,000 cells/well. […] Treated cells are lysed and cDNA synthesized using the Fast Advanced Cells-to-Ct kit (Thermofisher A35378) according to the manufacturer's instructions. 2 μL of each cDNA are used in qPCR reactions. […] Reactions are run in a Quant Studio 6 qPCR instrument with default settings.

[4] = test system: SMN protein in spinal muscular atrophy (SMA) patient fibroblasts (GM03813, Coriell); assay: SMN protein assay, Mesoscale Discovery (MSD); assay type: cell-based, human; conditions: read-out: SMN2 protein EC50
Summary of the method: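 SMA patient fibroblasts (GM03813) seeded at 7000 cells/well and exposed to compound at 2.5 μM to 0.6 nM for 48 hours. Lysates assayed for SMN by MSD immunoassay, with absolute SMN amount calculated from a per-plate SMN standard curve (1 μg/ml to 19.5 pg/ml).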

MDR1 (P-gp) = assay: Blood-brain-barrier (BBB) penetration potential via MDCK-MDR1 permeability assay; conditions: dog; for Papp A→B at 120 min, 5 μM: MDCK-MDR1, pH 7.4, MDCK-MDR1: Papp A-B; for Papp B→A at 120 min, 5 μM: MDCK-MDR1, pH 7.4, MDCK-MDR1: Papp B-A
[5] = test system: MDR1-MDCK cell monolayers; assay: as above
MDR1 = assay: as above; conditions: dog, MDCK-MDR1, pH 7.4, MDCK-MDR1: Efflux
[6] = GM04724 Huntington's disease patient lymphoblasts
[7] = SMA patient fibroblasts GM03813, 24 h, qPCR
[8] = SMA patient fibroblasts GM03813, 48 hours, MSD

Row | Structure (SMILES) | EC50 ([1]; qPCR) | EC50 [2, 6] | EC50 [3, 7] | EC50 [4, 8] | Papp A→B at 120 min, 5 μM (MDR1 (P-gp); A-B direction) | Papp B→A at 120 min, 5 μM (MDR1 (P-gp); B-A direction) | MDCK-MDR1: % Recov A-B ([5]; A-B direction) | MDCK-MDR1: % Recov B-A ([5]; B-A direction) | efflux ratio at 120 min, 5 μM (MDR1; efflux ratio) | EC50 [1] | EC50 ([2]; GM04724 (CAG 70/20) Huntington's disease patient lymphoblasts) | EC50 ([3]; SMA patient fibroblasts (GM03813)) | EC50 ([4]; SMA patient fibroblasts (GM03813), 48 hours) | Papp A→B at 120 min, 5 μM (MDR1 (P-gp); A-B) | Papp B→A at 120 min, 5 μM (MDR1 (P-gp); B-A) | MDCK-MDR1: % Recov A-B ([5]; A-B) | MDCK-MDR1: % Recov B-A ([5]; B-A) | efflux ratio at 120 min, 5 μM (MDR1)
1 | CN(c1ccc(-c2ccc(-n3nccn3)cc2O)nn1)[C@H]1C[C@@H]2CC[C@@H](N2)[C@H]1F [Compound 90B, 2-(6-(((1R,2R,3S,5S)-2-fluoro-8-azabicyclo[3.2.1]octan-3-yl)(methyl)amino)pyridazin-3-yl)-5-(2H-1,2,3-triazol-2-yl)phenol] | 0.01 to 15 nM | 0.01 to 15 nM | 0.01 to 15 nM | 16 to 50 nM | 6.56 ×10⁻⁶ cm/s | 16.1 ×10⁻⁶ cm/s | 43% | 67% | 2 | – | – | – | – | – | – | – | – | –
2 | CN(c1ccc(-c2ccc(-c3cn[nH]c3)cc2O)nn1)[C@H]1C[C@@H]2CC[C@@H](N2)[C@H]1F (single isomer, unassigned) [Compound 42B] | 0.01 to 15 nM | 0.01 to 15 nM | 0.01 to 15 nM | 0.01 to 15 nM | 0.71 ×10⁻⁶ cm/s | 27.7 ×10⁻⁶ cm/s | 78% | 73% | 39 | – | – | – | – | – | – | – | – | –
3 | CN(c1ccc(-c2cc3cccnc3cc2O)nn1)[C@H]1C[C@@H]2CC[C@@H](N2)[C@H]1F [Compound 74B, 6-(6-(((1R,2R,3S,5S)-2-fluoro-8-azabicyclo[3.2.1]octan-3-yl)(methyl)amino)pyridazin-3-yl)quinolin-7-ol] | 51 to 100 nM | 0.01 to 15 nM | 16 to 50 nM | 0.01 to 15 nM | 3 ×10⁻⁶ cm/s | 56 ×10⁻⁶ cm/s | 77% | 90% | 19 | – | – | – | – | – | – | – | – | –
4 | CN(c1ccc(-c2cc3ncccc3cc2O)nn1)[C@@H]1C[C@H]2CC[C@H](N2)[C@@H]1F [Compound 73A, 7-(6-(((1S,2S,3R,5R)-2-fluoro-8-azabicyclo[3.2.1]octan-3-yl)(methyl)amino)pyridazin-3-yl)quinolin-6-ol] | 0.01 to 15 nM | 0.01 to 15 nM | 0.01 to 15 nM | 0.01 to 15 nM | 2.92 ×10⁻⁶ cm/s | 61.3 ×10⁻⁶ cm/s | 76% | 91% | 21 | – | – | – | – | – | – | – | – | –
5 | Cc1cnc(-c2ccc(-c3ccc(N(C)[C@@H]4C[C@H]5CCC[C@H](N5)[C@@H]4F)nn3)c(O)c2)o1 [Compound 16A, 2-(6-(((1S,2S,3R,5R)-2-fluoro-9-azabicyclo[3.3.1]nonan-3-yl)(methyl)amino)pyridazin-3-yl)-5-(5-methyloxazol-2-yl)phenol] | 16 to 50 nM | 16 to 50 nM | 101 to 500 nM | 101 to 500 nM | 2.31 ×10⁻⁶ cm/s | 15.2 ×10⁻⁶ cm/s | 31% | 41% | 7 | – | – | – | – | – | – | – | – | –
6 | CN(c1ccc(-c2ccc(-n3nccn3)cc2O)nn1)[C@@H]1C[C@H]2CCC[C@H](N2)[C@@H]1F [Compound 5A, 2-(6-(((1S,2S,3R,5R)-2-fluoro-9-azabicyclo[3.3.1]nonan-3-yl)(methyl)amino)pyridazin-3-yl)-5-(2H-1,2,3-triazol-2-yl)phenol] | 0.01 to 15 nM | 0.01 to 15 nM | 16 to 50 nM | 0.01 to 15 nM | 4.85 ×10⁻⁶ cm/s | 20.1 ×10⁻⁶ cm/s | 29% | 58% | 4 | – | – | – | – | – | – | – | – | –
7 | Cc1cc(=O)c2cc(-c3ccc(N(C)[C@H]4C[C@@H]5CC[C@@H](N5)[C@H]4F)nn3)c(O)cc2o1 [Compound 50B, 6-(6-(((1R,2R,3S,5S)-2-fluoro-8-azabicyclo[3.2.1]octan-3-yl)(methyl)amino)pyridazin-3-yl)-7-hydroxy-2-methyl-4H-chromen-4-one] | 0.01 to 15 nM | 0.01 to 15 nM | 0.01 to 15 nM | 0.01 to 15 nM | 1.81 ×10⁻⁶ cm/s | 51.8 ×10⁻⁶ cm/s | 80% | 95% | 29 | – | – | – | – | – | – | – | – | –
8 | CN(c1ccc(-c2cc(F)c(-c3ccoc(=O)c3)cc2O)nn1)[C@@H]1C[C@H]2CC[C@H](N2)[C@@H]1F [Compound 17A, 4-(2-fluoro-4-(6-(((1S,2S,3R,5R)-2-fluoro-8-azabicyclo[3.2.1]octan-3-yl)(methyl)amino)pyridazin-3-yl)-5-hydroxyphenyl)-2H-pyran-2-one] | 0.01 to 15 nM | 0.01 to 15 nM | 0.01 to 15 nM | 0.01 to 15 nM | 2.08 ×10⁻⁶ cm/s | 39.2 ×10⁻⁶ cm/s | 57% | 81% | 19 | – | – | – | – | – | – | – | – | –
9 | CN(c1ccc(-c2ccc(-c3cnccn3)cc2O)nn1)[C@@H]1C[C@H]2CCC[C@H](N2)[C@@H]1F [Compound 24A, 2-(6-(((1S,2S,3R,5R)-2-fluoro-9-azabicyclo[3.3.1]nonan-3-yl)(methyl)amino)pyridazin-3-yl)-5-(pyrazin-2-yl)phenol] | 51 to 100 nM | 51 to 100 nM | 101 to 500 nM | 0.01 to 15 nM | 4.73 ×10⁻⁶ cm/s | 61.3 ×10⁻⁶ cm/s | 79% | 90% | 13 | – | – | – | – | – | – | – | – | –
10 | CN(c1ccc(-c2cc3c(=O)n(C)cnc3cc2O)nn1)[C@H]1C[C@@H]2CC[C@@H](N2)[C@H]1F [Compound 85B, 6-(6-(((1R,2R,3S,5S)-2-fluoro-8-azabicyclo[3.2.1]octan-3-yl)(methyl)amino)pyridazin-3-yl)-7-hydroxy-3-methylquinazolin-4(3H)-one] | 0.01 to 15 nM | 0.01 to 15 nM | 0.01 to 15 nM | 0.01 to 15 nM | 0.71 ×10⁻⁶ cm/s | 48.5 ×10⁻⁶ cm/s | 98% | 103% | 68 | – | – | – | – | – | – | – | – | –
11 | CN(c1ccc(-c2cc3cnccc3cc2O)nn1)[C@H]1C[C@@H]2CCC[C@@H](N2)[C@H]1F [Compound 121B, 7-(6-(((1R,2R,3S,5S)-2-fluoro-9-azabicyclo[3.3.1]nonan-3-yl)(methyl)amino)pyridazin-3-yl)isoquinolin-6-ol] | – | – | – | – | – | – | – | – | – | 0.01 to 15 nM | 0.01 to 15 nM | 0.01 to 15 nM | 0.01 to 15 nM | 4.47 ×10⁻⁶ cm/s | 39.5 ×10⁻⁶ cm/s | 83% | 111% | 9
12 | CN(c1ccc(-c2ccc(-c3cnccn3)cc2O)nn1)[C@H]1C[C@@H]2CCC[C@@H](N2)[C@H]1F [Compound 24B, 2-(6-(((1R,2R,3S,5S)-2-fluoro-9-azabicyclo[3.3.1]nonan-3-yl)(methyl)amino)pyridazin-3-yl)-5-(pyrazin-2-yl)phenol] | 0.01 to 15 nM | 0.01 to 15 nM | 0.01 to 15 nM | 0.01 to 15 nM | 5.99 ×10⁻⁶ cm/s | 33.8 ×10⁻⁶ cm/s | 73% | 91% | 6 | – | – | – | – | – | – | – | – | –
13 | Cc1ccc(-c2ccc(-c3ccc(N(C)[C@H]4C[C@@H]5CCC[C@@H](N5)[C@H]4F)nn3)c(O)c2)nn1 [Compound 27B, 2-(6-(((1R,2R,3S,5S)-2-fluoro-9-azabicyclo[3.3.1]nonan-3-yl)(methyl)amino)pyridazin-3-yl)-5-(6-methylpyridazin-3-yl)phenol] | 16 to 50 nM | 0.01 to 15 nM | 0.01 to 15 nM | 0.01 to 15 nM | 1.13 ×10⁻⁶ cm/s | 43.5 ×10⁻⁶ cm/s | 98% | 115% | 38 | – | – | – | – | – | – | – | – | –
14 | Cc1ccc(-c2ccc(-c3ccc(N(C)[C@H]4C[C@@H]5CC[C@@H](N5)[C@H]4F)nn3)c(O)c2)nn1 (single isomer, unassigned) [Compound 25B] | 16 to 50 nM | 16 to 50 nM | 16 to 50 nM | 0.01 to 15 nM | 1.61 ×10⁻⁶ cm/s | 46.8 ×10⁻⁶ cm/s | 105% | 108% | 29 | – | – | – | – | – | – | – | – | –
